“And” between values parts separate entries of the source, which are not always exact repeats. Equal values may be shown once. Where a name gives a salt, the structure may show the parent alone. Read-outs that look alike come from different tables or passages of the source.
How the values were obtained:
SUDHL5 [1] = assay: Induction of cytotoxicity (CellTiter-Glo, 5 h), SUDHL5
MCL-1 = MCL-1 (Homo sapiens, UniProt Q07820); assay: Protein-protein interaction assay MCL-1/Noxa BH3 peptide (MCL-1 assay), TR-FRET; assay type: binding; details: MBP-MCL-1 / Noxa BH3-derived peptide, median
Sequence of MCL-1 (Q07820 whole entry): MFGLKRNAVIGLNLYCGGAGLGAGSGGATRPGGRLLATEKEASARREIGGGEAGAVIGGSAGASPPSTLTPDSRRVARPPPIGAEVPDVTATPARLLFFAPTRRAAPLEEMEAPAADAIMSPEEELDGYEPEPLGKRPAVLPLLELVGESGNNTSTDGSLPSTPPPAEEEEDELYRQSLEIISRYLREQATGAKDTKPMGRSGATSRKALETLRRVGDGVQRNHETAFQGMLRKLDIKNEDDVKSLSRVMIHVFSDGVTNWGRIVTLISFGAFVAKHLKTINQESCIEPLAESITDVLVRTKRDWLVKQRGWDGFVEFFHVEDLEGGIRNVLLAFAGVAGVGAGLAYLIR
Outline: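 Displacement of the biotinylated Noxa BH3 peptide from MBP-tagged human MCL-1 (1 nM) is detected by time-resolved FRET. Compounds are tested in duplicate across eleven concentrations up to 20 μM, incubated 1 h at 22 °C and overnight at 4 °C, and IC50 is fitted with a four-parameter equation.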

SUDHL5 [2] = assay: Induction of caspase-3/7 activity (Caspase-Glo 3/7), SUDHL5; assay type: cell-based; details: caspase-3/7 induction, SUDHL5 cells, 3 h treatment, median
Outline: (§1)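 Caspase-Glo 3/7 luminescence, 3 h compound exposure, 37 °C, humidified. Minus medium-only blank. EC50 fit: C0=1, plateau = reference max induction.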

SUDHL10 [3] = assay: Induction of cytotoxicity (CellTiter-Glo, 5 h), SUDHL10
SUDHL10 [4] = assay: Anti-proliferative effect (CellTiter-Glo, 72 h), SUDHL10; assay type: cell-based; details: SUDHL10 cells, antiproliferation, median, read-out: Antiproli SUDHL10 [M] (median)
Outline: (§2)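 CTG luminescence read-out after 72 h compound exposure, 37 °C, humidified. Time-zero reference plate read at plating.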

SUDHL10 [5] = assay: Induction of caspase-3/7 activity (Caspase-Glo 3/7), SUDHL10; assay type: cell-based; details: caspase-3/7 induction, SUDHL10 cells, 3 h treatment, median
Outline: as §1

A2780 = assay: Anti-proliferative effect (CellTiter-Glo, 72 h), A2780; assay type: cell-based; details: A2780 cells, median, read-out: IC50 antiproliferation assay A2780 [M] (median)
Outline: as §2

SUDHL5 [6] = assay: Anti-proliferative effect (CellTiter-Glo, 72 h), SUDHL5; assay type: cell-based; details: SUDHL5 cells, antiproliferation, median, read-out: Antiproli SUDHL5 [M] (median)
Outline: as §2

[7] = Homo sapiens, SU-DHL-5, 5 h, read-out: Cytotox SUDHL5 [M] (median), SUDHL5 cells, cytotoxicity induction, CellTiter-Glo, 5 h incubation, median
[8] = Homo sapiens, SU-DHL10, 5 h, read-out: Cytotox SUDHL10 [M] (median), SUDHL10 cells, cytotoxicity induction, CellTiter-Glo, 5 h incubation, median
[9] = Homo sapiens, SU-DHL-5, 72 h, 72 h incubation
[10] = read-out: Cytotox SUDHL5 [M] (median), SUDHL5 cells, cytotoxicity induction, CellTiter-Glo, 5 h incubation, median
[11] = read-out: Cytotox SUDHL10 [M] (median), SUDHL10 cells, cytotoxicity induction, CellTiter-Glo, 5 h incubation, median
[12] = Homo sapiens, SU-DHL-5, 5 h, read-out: Cytotox SUDHL5 [M] (median), SUDHL5 cells, cytotoxicity induction, CellTiter-Glo, 5 h, median
[13] = Homo sapiens, SU-DHL10, 5 h, read-out: Cytotox SUDHL10 [M] (median), SUDHL10 cells, cytotoxicity induction, CellTiter-Glo, 5 h, median
[14] = Homo sapiens, SU-DHL10, 72 h, 72 h
[15] = Homo sapiens, SU-DHL-5, 72 h, 72 h

IC50 (MCL-1)	EC50 (SUDHL5 [2]; Homo sapiens, SU-DHL-5, 3 h)	EC50 (SUDHL10 [5]; Homo sapiens, SU-DHL10, 3 h)	IC50 (A2780; Homo sapiens, A2780, 72 h)	IC50 (SUDHL5 [6]; 72 h incubation)	IC50 (SUDHL10 [4]; 72 h incubation)	EC50 (SUDHL10 [5])	EC50 (SUDHL5 [2])	IC50 (SUDHL10 [4]; [14])	IC50 (SUDHL5 [6]; [15])	SMILES	IC50 (SUDHL5 [1]; [10])	IC50 (SUDHL10 [3]; [11])	IC50 (SUDHL5 [1]; [12])	IC50 (SUDHL10 [3]; [13])	other results
0.0133 µM	27.5 µM	> 33 µM	> 3.3e-05 M	> 3.3e-06 M	–	–	–	–	–	Cn1nc(CCN2CCOCC2)c2c1COCCCCn1c(C(=O)O)c(CCCOc3cccc4ccccc34)c3cccc-2c31 (single isomer, unassigned; enantiomer 1) [Example 151, 1-methyl-3-[2-(morpholin-4-yl)ethyl]-7-[3-(naphthalen-1-yloxy)propyl]-1,10,11,12,13,15-hexahydropyrazolo[4′,3′:9,10][1,6]oxazacycloundecino[8,7,6-hi]indole-8-carboxylic acid-N-ethylethanamine Salt (Enantiomer 1)]	–	–	–	–	IC50 (SUDHL5 [1]; [7]): 1.91e-05 M; IC50 (SUDHL10 [3]; [8]): > 3.3e-05 M; IC50 (SUDHL10 [4]; Homo sapiens, SU-DHL10, 72 h, 72 h incubation): 2.01e-05 M
0.0181 µM	12.8 µM	> 33 µM	> 3.3e-05 M	–	> 3.3e-05 M and 2.21e-05 M	30 µM	–	–	–	COCc1nn(C)c2c1-c1cccc3c(CCCOc4cccc5ccccc45)c(C(=O)O)n(c13)CCCCCOC2 (single isomer, unassigned; enantiomer 1) [Example 178, 3-(methoxymethyl)-1-methyl-7-[3-(naphthalen-1-yloxy)propyl]-1,11,12,13,14,16-hexahydro-1 OH-pyrazolo[3′,4′:3,4][1,7]oxazacyclododecino[5,6,7-h]indole-8-carboxylic acid-N-ethylethanamine Salt (Enantiomer 1)]	–	–	–	–	IC50 (SUDHL5 [1]; [7]): 1.3e-05 M; IC50 (SUDHL10 [3]; [8]): > 3.3e-05 M; IC50 (SUDHL5 [6]; [9]): 9.37e-06 M
0.00146 µM	–	–	2.42e-05 M	3.39e-06 M	9.83e-06 M	7.76 µM	2.82 µM	–	–	CCCc1nn(C)c2c1-c1c(C)ccc3c(CCCOc4cccc5ccccc45)c(C(=O)O)n(c13)CCCCOC2 (single isomer, unassigned; enantiomer 1) [Example 188, 1,4-dimethyl-7-[3-(naphthalen-1-yloxy)propyl]-3-propyl-1,10,11,12,13,15-hexahydropyrazolo[4′,3′:9,10][1,6]oxazacycloundecino[8,7,6-hi]indole-8-carboxylic acid-N-ethylethanamine Salt (Enantiomer 1)]	2.95e-06 M	6.61e-06 M	–	–	–
0.00735 µM	–	–	1.82e-05 M	–	6.28e-06 M	15.1 µM	5.09 µM	–	–	Cn1nc2c(c1C(F)(F)F)-c1cccc3c(CCCOc4cccc5ccccc45)c(C(=O)O)n(c13)CCCCOC2 (single isomer, unassigned; enantiomer 1) [Example 194, 2-methyl-7-[3-(naphthalen-1-yloxy)propyl]-3-(trifluoromethyl)-2,10,11,12,13,15-hexahydropyrazolo[4′,3′:9,10][1,6]oxazacycloundecino[8,7,6-hi]indole-8-carboxylic Acid (Enantiomer 1)]	5.46e-06 M	1.63e-05 M	–	–	IC50 (SUDHL5 [6]; [9]): 7.95e-06 M
0.0462 µM	–	–	3.17e-05 M	2.52e-05 M	1.74e-05 M	> 33 µM	30.2 µM	–	–	CCc1c2c(nn1CCN1CCOCC1)COCCCCn1c(C(=O)O)c(CCCOc3cccc4ccccc34)c3cccc-2c31 (single isomer, unassigned; enantiomer 1) [Example 202, 3-ethyl-2-[2-(morpholin-4-yl)ethyl]-7-[3-(naphthalen-1-yloxy)propyl]-2,10,11,12,13,15-hexahydropyrazolo[4′,3′:9,10][1,6]oxazacycloundecino[8,7,6,6-hi]indole-8-carboxylic Acid (Enantiomer 1)]	> 3.3e-05 M	2.87e-05 M	–	–	–
1.08 µM	> 33 µM	> 33 µM	> 3.3e-05 M	–	–	–	–	1.9e-05 M	2.46e-05 M	Cn1nc(COc2ccc(NS(C)(=O)=O)cc2)c2c1COCCCCn1c(C(=O)O)c(CCCOc3cccc4ccccc34)c3cccc-2c31 (single isomer, unassigned; enantiomer 1) [Example 322, 1-methyl-3-({4-[((methylsulfonyl)amino]phenoxy}methyl)-7-[3-(naphthalen-1-yloxy)propyl]-1,10,11,12,13,15-hexahydropyrazolo[4′,3′:9,10][1,6]oxazacycloundecino[8,7,6-hi]indole-8-carboxylic Acid-N-ethylethanamine Salt (Enantiomer 1)]	–	–	> 3.3e-05 M	> 3.3e-05 M	–
0.515 µM	> 33 µM	> 33 µM	> 3.3e-05 M	–	–	–	–	1.14e-05 M	3.18e-05 M	Cn1nc(CN2CCCCC2=O)c2c1COCCCCn1c(C(=O)O)c(CCCOc3cccc4ccccc34)c3cccc-2c31 (single isomer, unassigned; enantiomer 1) [Example 326, 1-methyl-7-[3-(naphthalen-1-yloxy)propyl]-3-[(2-oxopiperidin-1-yl)methyl]-1,10,11,12,13,15-hexahydropyrazolo[4′,3′:9,10][1,6]oxazacycloundecino[8,7,6-hi]indole-carboxylic Acid (Enantiomer 1)]	–	–	> 3.3e-05 M	> 3.3e-05 M	–
0.153 µM	–	–	–	–	–	> 33 µM	> 33 µM	–	–	Cn1nc(CN2CCCC2=O)c2c1COCCCCn1c(C(=O)O)c(CCCOc3cccc4ccccc34)c3cccc-2c31 (single isomer, unassigned; enantiomer 1) [Example 330, 1-methyl-7-[3-(naphthalen-1-yloxy)propyl]-3-[(2-oxopyrrolidin-1-yl)methyl]-1,10,11,12,13,15-hexahydropyrazolo[4′,3′:9,10][1,6]oxazacycloundecino[8,7,6-hi]indole-8-carboxylic Acid (Enantiomer 1)]	–	–	–	–	IC50 (SUDHL5 [1]; read-out: Cytotox SUDHL5 [M] (median), SUDHL5 cells, cytotoxicity induction, CellTiter-Glo, 5 h, median): > 3.3e-05 M; IC50 (SUDHL10 [3]; read-out: Cytotox SUDHL10 [M] (median), SUDHL10 cells, cytotoxicity induction, CellTiter-Glo, 5 h, median): > 3.3e-05 M; IC50 (SUDHL10 [4]; 72 h): 2.49e-05 M; IC50 (A2780): > 3.3e-05 M; IC50 (SUDHL5 [6]; 72 h): > 3.3e-05 M
1.04 µM	17.3 µM	> 33 µM	1.67e-05 M	–	–	–	–	8.22e-06 M	8.44e-06 M	Cn1nc(CN2CCCCC2)c2c1COCCCCn1c(C(=O)O)c(CCCOc3cccc4ccccc34)c3cccc-2c31 (single isomer, unassigned; enantiomer 1) [Example 333, 1-methyl-7-[3-(naphthalen-1-yloxy)propyl]-3-(piperidin-1-ylmethyl)-1,10,11,12,13,15-hexahydropyrazolo[4′,3′:9,10][1,6]oxazacycloundecino[8,7,6-hi]indole-8-carboxylic Acid (Enantiomer 1)]	–	–	2.89e-05 M	> 3.3e-05 M	–
0.132 µM	> 33 µM	> 33 µM	> 3.3e-05 M	–	–	–	–	> 3.3e-05 M	> 3.3e-05 M	Cn1nc(CN2CCCC2)c2c1COCCCCn1c(C(=O)O)c(CCCOc3cccc4ccccc34)c3cccc-2c31 (single isomer, unassigned; enantiomer 1) [Example 336, 1-methyl-7-[3-(naphthalen-1-yloxy)propyl]-3-(pyrrolidin-1-ylmethyl)-1,10,11,12,13,15-hexahydropyrazolo[4′,3′:9,10][1,6]oxazacycloundecino[8,7,6-hi]indole-8-carboxylic Acid (Enantiomer 1)]	–	–	> 3.3e-05 M	> 3.3e-05 M	–

Reference: patent US10981932B2, “Macrocyclic indole derivatives” (Bayer Aktiengesellschaft, priority 2016, dated 2021)
